Data set [1] deals with cyclooxygenase (Homo sapiens, UniProt P23219). As to the kind of experiment: cyclooxygenase enzyme assay, % inhibition (CO). The class given is biochemical. The conditions noted are these: for inhibition at 0.5 µg/mL: Dosage 0.5 μg/ml; for inhibition at 1 µg/mL: Dosage 1.0 μg/ml; for inhibition at 5 µg/mL: Dosage 5.0 μg/ml; for inhibition at 0.1 µg/mL: Dosage 0.1 μg/ml.
Data set [2] addresses T1, 5-lipoxygenase (Homo sapiens, UniProt P09917).
T1 sequence (P09917 1-674): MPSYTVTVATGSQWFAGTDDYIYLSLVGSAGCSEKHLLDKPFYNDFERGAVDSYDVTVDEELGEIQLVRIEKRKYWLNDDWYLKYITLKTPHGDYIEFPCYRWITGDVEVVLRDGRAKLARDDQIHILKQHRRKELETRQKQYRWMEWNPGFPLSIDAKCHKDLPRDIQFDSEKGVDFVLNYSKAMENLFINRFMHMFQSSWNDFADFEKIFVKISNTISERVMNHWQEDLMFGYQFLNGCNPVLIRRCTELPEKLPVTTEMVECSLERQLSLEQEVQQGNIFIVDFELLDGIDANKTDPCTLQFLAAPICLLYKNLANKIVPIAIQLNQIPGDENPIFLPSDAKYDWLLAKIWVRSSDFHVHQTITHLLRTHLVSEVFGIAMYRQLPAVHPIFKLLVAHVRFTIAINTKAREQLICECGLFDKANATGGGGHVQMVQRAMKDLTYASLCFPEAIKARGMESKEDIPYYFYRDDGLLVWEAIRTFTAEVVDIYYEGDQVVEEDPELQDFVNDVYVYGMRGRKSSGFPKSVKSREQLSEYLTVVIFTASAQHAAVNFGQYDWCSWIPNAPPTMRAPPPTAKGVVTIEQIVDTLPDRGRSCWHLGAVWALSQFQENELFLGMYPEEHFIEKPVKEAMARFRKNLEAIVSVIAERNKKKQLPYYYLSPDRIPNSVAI
As to the kind of experiment: 5-lipoxygenase enzyme assay, % inhibition (5-LO). The conditions noted are these: for inhibition at 1 µg/mL: Dosage 1.0 μg/ml. The class given is biochemical.

A short description of data set [3]: solubility remark (footnote of table 9). The class given is physicochemical. The conditions noted are these: footnote to 5-LO value at 100 μg/ml.
Data set [4] concerns gastric acid secretion. The conditions noted are these: S. Szabo et al., Experimentia, 38, 254, 1982; cited from earlier work.
Data set [5] has as its system gastric cytoprotection. The conditions noted are these: S. Szabo et al., Experimentia, 38, 254, 1982; cited from earlier work.

Sequence of cyclooxygenase (P23219 24-599): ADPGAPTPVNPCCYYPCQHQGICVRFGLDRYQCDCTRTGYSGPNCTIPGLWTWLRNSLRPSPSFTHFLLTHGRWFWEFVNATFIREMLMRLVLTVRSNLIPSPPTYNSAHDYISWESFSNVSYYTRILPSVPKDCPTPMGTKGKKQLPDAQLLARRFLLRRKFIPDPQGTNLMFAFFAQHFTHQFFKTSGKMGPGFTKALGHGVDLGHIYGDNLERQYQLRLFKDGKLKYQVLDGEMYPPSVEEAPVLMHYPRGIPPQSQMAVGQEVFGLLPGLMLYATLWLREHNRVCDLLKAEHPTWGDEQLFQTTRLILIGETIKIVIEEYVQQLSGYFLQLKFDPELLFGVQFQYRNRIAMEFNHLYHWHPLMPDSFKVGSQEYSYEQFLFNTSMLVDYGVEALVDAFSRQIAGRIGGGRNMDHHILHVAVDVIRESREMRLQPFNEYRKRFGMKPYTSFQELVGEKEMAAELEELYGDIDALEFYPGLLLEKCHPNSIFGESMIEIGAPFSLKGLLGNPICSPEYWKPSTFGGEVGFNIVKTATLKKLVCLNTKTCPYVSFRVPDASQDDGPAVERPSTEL

For the compound `COC(=O)c1cc2oc(C(=O)NC=C(c3ccccc3)c3ccccc3)c(O)c2s1` [O phenyl phenyl CO2 CH3, N-(2,2-Diphenylethenyl)-5-carbomethoxy-3-hydroxythieno[3,2-b]furan-2-carboxamide], in data set [1], the inhibition at 0.5 µg/mL amounted to 95%, testing at 1 µg/mL gave an inhibition of 98% and at 5 µg/mL the inhibition was 100%. In addition, the inhibition at 2 µg/mL in data set [1] (Dosage 2.0 μg/ml) turned out to be 98%. In data set [2] (Dosage 0.5 μg/ml), this compound returned an inhibition at 0.5 µg/mL of 30%. The inhibition at 5 µg/mL in data set [2] (Dosage 5.0 μg/ml) was 34%.
`Cc1ccc(C(=CNC(=O)c2sc3ccsc3c2O)c2ccco2)cc1` [S p-tolyl 2-furyl H, N-[2-(2-Furyl)-2-(4-methylphenyl)ethenyl]-3-hydroxythieno[3,2-b]thiophene-2-carboxamide]: the inhibition at 0.1 µg/mL in data set [1] is 49%; in data set [2] (Dosage 0.1 μg/ml), 11%. The results for the inhibition at 1 µg/mL in data set [1] and in data set [2] were 97% and 14%, respectively. The compound further showed an inhibition at 5 µg/mL in data set [1] of 98%. Moreover, the inhibition at 10 µg/mL worked out at 100% in data set [1] (Dosage 10.0 μg/ml) and 66% in data set [2] (Dosage 10.0 μg/ml).
With `COC(=O)c1cc2sc(C(=O)NC=C(c3ccccc3)c3ccccc3)c(O)c2s1` [S phenyl phenyl CO2 CH3, 5-Carbomethoxy-N-(2,2-diphenylethenyl)-3-hydroxythieno[3,2-b]thiophene-2-carboxamide], the inhibition at 0.01 µg/mL in data set [1] (Dosage 0.01 μg/ml) was 9%. Also, in data set [1] (Dosage 0.05 μg/ml), the inhibition at 0.05 µg/mL worked out at 33%. In data set [1], the inhibition at 0.5 µg/mL was determined as 80% and 5 µg/mL produced 100% inhibition. Besides, the inhibition at 100 µg/mL in data set [1] (Dosage 100 μg/ml) was determined as 100%. The same compound showed an inhibition at 100 µg/mL in data set [2] of 12%. Also, in data set [3], the “solubility (footnote)” value was “very insoluble”.
In the case of `O=C(NC=C(c1ccccc1)c1ccccc1)c1sc2ccsc2c1O` [S phenyl phenyl H, N-(2,2-diphenylethenyl)-3-hydroxythieno[3,2-b]thiophene-2-carboxamide], in data set [1], at 0.1 µg/mL the inhibition was 39% and testing at 1 µg/mL gave an inhibition of 100%. In data set [1] (Dosage 0.48 μg/ml), this compound registered an inhibition at 0.48 µg/mL of 99%. In data set [1] (Dosage 2.40 μg/ml), this compound displayed an inhibition at 2.4 µg/mL of 100%. In data set [2], this compound registered an inhibition at 1 µg/mL of 34%.
On to `CCCCC[C@H](O)/C=C/[C@@H]1[C@@H](C/C=C\CCCC(=O)O)[C@H](O)C[C@H]1O` [protaglandin F2B], for which the “inhibition of gastric acid secretion” value in data set [4] is “does not inhibit gastric acid secretion”. Besides, the gastric cytoprotection result in data set [5] is “does induce gastric cytoprotection”.

The values above are taken from patent publication US4720503A, “N-substituted fused-heterocyclic carboxamide derivatives as dual cyclooxygenase and lipoxygenase inhibitors” (Merck & Co., Inc., priority 1985, dated 1988).
